Data as given in patent publication US7144858B2, “Antibacterial compounds and methods for treating Gram positive bacterial infections” (The Trustees of the University of Pennsylvania, priority 2002, dated 2006).

Legend:
[1] = Binding to Park's nucleotide, Kd by 1H NMR titration; design: species or system Bacillus subtilis; conditions: for Kd: 20% DMSO, NMR titration
Procedure: Fibril formation is observed in vitro and serves as a convenient predictor of PG complexation in vitro. […] Therefore, DMSO allows for the determination of binding affinity (Kd) values and characterization of the binding interface by Nuclear Magnetic Resonance spectroscopy (NMR).
(§1) Mass spectra were recorded on commercially available spectrometers and HPLC was performed on a commercially available columns. Both the NMR spectroscopy and transmission electron micrographs were performed in a manner known to one of ordinary skill in the art. Fmoc-amino acids and deuterated solvents were purchased from a commercial supplier. Measurement of dissociation constants was performed by NMR.
(§2) UDP-MurNAc-L-Ala-γ-D-Glu-L-Dap-D-Ala-D-Ala pentapeptide (Park's nucleotide) and UDP-MurNAc-L-Ala-γ-D-Glu-L-Dap tripeptide were isolated from Bacillus subtilis by methods known to those of ordinary skill in the art.
(§3) The resultant antibacterial compound was then titrated against a solution of the cytoplasmic PG biosynthetic precursor of lipid II, Park's nucleotide. Isothermal titration calorimetry experiments were used to measure the interaction between the antibacterial compound and Park's nucleotide. The experiments were performed at 25° C. using a titration microcalorimeter equipped with a 250 μL injection syringe and a 400 rpm stirring rate. Both the, antibacterial compound and Park's nucleotide were dissolved in water and vacuum degassed before use. Park's nucleotide (20×10 μL injection of a 5.4 mM solution) was injected into an ITC cell containing ca. 1.3 mL of the antibacterial compound (1 mM). Control experiments were performed under identical conditions by injection of the compound into water alone, Park's nucleotide into water, and the reverse experiment of titrating water into solution of the antibacterial compound or Park's nucleotide. […] The complex pattern of heat released during the titration is indicative of ligand-induced aggregation. Insoluble fibrils were produced from soluble fibril preparations by increasing the ionic strength to greater than or equal to 100 mM.

[2] = Binding to UDP-MurNAc tripeptide lipid II precursor, NMR titration; design: species or system Bacillus subtilis; conditions: for Complexation/binding with UDP-MurNAc-L-Ala-γ-D-Glu-L-Dap tripeptide: NMR analysis / titration
Procedure: as §1, §2, §3
The resultant antibacterial compound still maintains the side-chain amine cationic charge. […] These values indicate that there was a strong affinity of the antibacterial compound to the two lipid II precursors.

Gram positive bacteria = test: Antibiotic activity; type: cell-based
[3] = Isothermal titration calorimetry with Park's nucleotide; type: binding, Bacillus subtilis; conditions: 25° C., water, Park's nucleotide 5.4 mM injected into 1 mM compound
Procedure: as §3

Substance | Kd [1] | Decrease in binding affinity with Park's nucleotide ([1]; titration experiments) | Complexation/binding with UDP-MurNAc-L-Ala-γ-D-Glu-L-Dap tripeptide [2] | Antibiotic activity (Gram positive bacteria) | Kd ([2]; titration as in example 1, read-out: Kd value with UDP-MurNAc-L-Ala-γ-D-Glu-L-Dap tripeptide) | Ligand-induced aggregation during ITC titration [3] | Complexation with Park's nucleotide by NMR ([1]; NMR analysis)
cyclic (lactone) compound containing octapeptide -Hpg-Orn-Thr-Hpg-Hpg-Thr-Phe-Orn-, diacetylated at the ornithine residues; lacks the side-chain cationic charge [Comparative Example A, reference compound] | 1340 ± 320 µM | ~10 fold | failed to show detectable binding | markedly reduced | – | – | –
cyclic (lactone) compound containing octapeptide -Hpg-Orn-Thr-Hpg-Hpg-Thr-Phe-Orn-, ornithine residues modified into secondary amines with isovaleraldehyde [Example 2] | 130 ± 20 µM | – | – | – | 1280 ± 140 µM | – | –
cyclic (lactone) antibacterial compound containing octapeptide -Hpg-Orn-Thr-Hpg-Hpg-Thr-Phe-Orn-, diguanidylated at the ornithine residues [Example 1] | 170 µM | – | clear evidence of complexation and formation of a large, soluble aggregate | – | – | ligand-induced aggregation occurred | clear evidence of complexation and formation of a large, soluble aggregate
